Test results reported in ChEMBL document CHEMBL5576037, “Discovery of the first ataxia telangiectasia and Rad3-related (ATR) degraders for cancer treatment” (Eur J Med Chem, 2024).
Activity calls are given as the source filed them. No cut-off for these calls is given here.

What was measured:
[1] = Toxicity in BALB/c nude mouse xenografted with human LoVo cells assessed as effect on heart at 12.5 to 25 mg/kg, ip administered twice daily for 15 days by H and E staining based analysis; format: organism-based; conditions: in vivo, 360 h, dose 12.5-25 mg/kg, time 15 day
[2] = target: Serine/threonine-protein kinase ATR (Homo sapiens, UniProt Q13535); experiment: Inhibition of ATR (unknown origin)
[3] = target: T1, Protein cereblon/Serine/threonine-protein kinase ATR (Homo sapiens, UniProt Q13535+Q96SW2); experiment: PROTAC activity at CRBN/ATR in human LoVo cells assessed as induction of ATR degradation measured after 72 hrs by Western blot analysis; format: cell-based
[4] = target: T1, Protein cereblon/Serine/threonine-protein kinase ATR; experiment: PROTAC activity at CRBN/ATR in human LoVo cells assessed as induction of ATR degradation at 2.5 uM incubated for 4 hrs by Western blot analysis; format: cell-based
LoVo [5] = experiment: Antitumor activity against human LoVo cells xenografted in BALB/c nude mouse assessed as tumor growth inhibition at 12.5 mg/kg, ip administered […] for 15 days relative to control; format: functional; conditions: 360 h, time 15 day, read-out: TGI
[6] = AUC (0 to t) in BALB/c nude mouse xenografted with human LoVo cells at 25 mg/kg, ip administered as single dose and measured after 12 hrs by LC-MS/MS analysis; format: ADME, organism-based; conditions: in vivo
[7] = target: T2, Serine/threonine-protein kinase Chk1 (Homo sapiens) (UniProt O14757); experiment: Induction of CHK1 degradation in human LoVo cells at 0.16 to 10 uM incubated for 72 hrs by Western blot analysis; format: cell-based; conditions: dose 0.16-10 µM
T2 sequence (whole entry): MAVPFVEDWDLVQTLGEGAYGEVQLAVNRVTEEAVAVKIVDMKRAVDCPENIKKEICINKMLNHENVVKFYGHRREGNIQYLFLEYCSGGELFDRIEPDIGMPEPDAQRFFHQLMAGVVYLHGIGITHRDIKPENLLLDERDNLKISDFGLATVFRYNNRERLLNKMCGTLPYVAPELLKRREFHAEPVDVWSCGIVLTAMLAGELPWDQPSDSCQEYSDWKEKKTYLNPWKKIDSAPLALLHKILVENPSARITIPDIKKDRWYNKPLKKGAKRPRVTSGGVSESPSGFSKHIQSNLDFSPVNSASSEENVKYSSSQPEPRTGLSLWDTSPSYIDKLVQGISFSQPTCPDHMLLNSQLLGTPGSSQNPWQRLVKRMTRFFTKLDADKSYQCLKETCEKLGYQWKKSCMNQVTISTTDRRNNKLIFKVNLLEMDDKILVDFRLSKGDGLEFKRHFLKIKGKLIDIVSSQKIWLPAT

[8] = target: T1, Protein cereblon/Serine/threonine-protein kinase ATR; experiment: PROTAC activity at CRBN/ATR in human LoVo cells assessed as induction of ATR degradation at 2.5 uM preincubated with MLN4924 for 4 hrs followed by compound addition and measured after 48 hrs by Western blot analysis; format: cell-based
HCT-116 = experiment: Antiproliferative activity against human HCT-116 cells expressing wildtype ATM incubated for 72 hrs by CCK8 assay; format: functional, cell-based; conditions: HCT-116, 72 h
LoVo [9] = experiment: Induction of apoptosis in human LoVo cells assessed as apoptotic rate at 0.5 uM incubated for 48 hrs by Annexin V-FITC/PI staining based flow cytometric analysis (reference value: 5.32 %); format: functional
[10] = target: T1, Protein cereblon/Serine/threonine-protein kinase ATR; experiment: PROTAC activity at CRBN/ATR in human LoVo cells assessed as induction of ATR degradation by measuring maximal efficacy after 72 hrs by Western blot analysis relative to control; format: cell-based
[11] = target: T1, Protein cereblon/Serine/threonine-protein kinase ATR; experiment: PROTAC activity at CRBN/ATR in human LoVo cells assessed as induction of ATR degradation at 2.5 uM preincubated with pomalidomide for 4 hrs followed by compound addition and measured after 48 hrs by Western blot analysis; format: cell-based
LoVo [12] = experiment: Antiproliferative activity against ATM deficient human LoVo cells incubated for 72 hrs by CCK8 assay; format: functional, cell-based
[13] = target: DNA-dependent protein kinase catalytic subunit (Homo sapiens) (UniProt P78527); experiment: Induction of DNA-PK degradation in human LoVo cells at 0.16 to 10 uM incubated for 72 hrs by Western blot analysis; format: cell-based; conditions: dose 0.16-10 µM
LoVo [14] = experiment: Downregulation of total ATR protein level in human LoVo cells incubated for 72 hrs by Western blot analysis; format: functional, cell-based; conditions: dose 0.16-10 µM
LoVo [15] = experiment: Induction of apoptosis in human LoVo cells assessed as apoptotic rate at 1 uM incubated for 48 hrs by Annexin V-FITC/PI staining based flow cytometric analysis (reference value: 5.32 %); format: functional
[16] = target: Phosphatidylinositol 4,5-bisphosphate 3-kinase catalytic subunit alpha isoform (Homo sapiens) (UniProt P42336); experiment: Induction of PI3K-alpha degradation in human LoVo cells at 0.16 to 10 uM incubated for 72 hrs by Western blot analysis; format: cell-based; conditions: dose 0.16-10 µM
[17] = target: T1, Protein cereblon/Serine/threonine-protein kinase ATR; experiment: PROTAC activity at CRBN/ATR in human LoVo cells assessed as increase in ATR-CRBN protein-protein interaction by co-immunoprecipitation analysis; format: cell-based
LoVo [18] = experiment: Antitumor activity against human LoVo cells xenografted in BALB/c nude mouse assessed as induction of DNA damage by measuring increase in gammaH2AX protein level; format: functional, cell-based
LoVo [19] = experiment: Cell cycle arrest in human LoVo cells assessed as accumulation of cells at G0/G1 phase at 0.5 uM incubated for 72 hrs by PI staining based flow cytometric analysis (reference value: 52.3 %); format: functional
LoVo [20] = experiment: Synergistic antitumor activity against human LoVo cells xenografted in BALB/c nude mouse assessed as tumor growth inhibition at 12.5 mg/kg, ip administered once daily for 15 days in presence of cisplatin relative to control; format: functional; conditions: 360 h, time 15 day, read-out: TGI
LoVo [21] = experiment: Cell cycle arrest in human LoVo cells assessed as accumulation of cells at S phase at 0.5 uM incubated for 72 hrs by PI staining based flow cytometric analysis (reference value: 25.5 %); format: functional
[22] = Toxicity in BALB/c nude mouse xenografted with human LoVo cells assessed as effect on spleen at 12.5 to 25 mg/kg, ip administered twice daily for 15 days by H and E staining based analysis; format: organism-based; conditions: in vivo, 360 h, dose 12.5-25 mg/kg, time 15 day
LoVo [23] = experiment: Antitumor activity against human LoVo cells xenografted in BALB/c nude mouse assessed as tumor growth inhibition at 25 mg/kg, ip administered […] for 15 days relative to control; format: functional; conditions: 360 h, time 15 day, read-out: TGI
[24] = target: T1, Protein cereblon/Serine/threonine-protein kinase ATR; experiment: In vivo PROTAC activity at CRBN/ATR in BALB/c nude mouse xenografted with human LoVo cells assessed as reduction in CHK1 phosphorylation at Ser345 residue administered intraperitoneally once daily for 15 days by Western blot analysis; format: functional, organism-based; conditions: dose 12.5-25 mg/kg, route ip, time 15.0 day
[25] = Free drug concentration in tumor of BALB/c nude mouse xenografted with human LoVo cells at 25 mg/kg, ip administered as single dose and measured after 12 hrs by LC-MS/MS analysis; format: ADME, organism-based; conditions: in vivo
[26] = target: T1, Protein cereblon/Serine/threonine-protein kinase ATR; experiment: PROTAC activity at CRBN/ATR in human LoVo cells assessed as induction of ATR degradation at 2.5 uM by Western blot analysis; format: cell-based; conditions: time 6-72 hrs, TDE = time-dependent effect
[27] = target: T1, Protein cereblon/Serine/threonine-protein kinase ATR; experiment: PROTAC activity at CRBN/ATR in human LoVo cells assessed as induction of ATR degradation at 1 uM incubated for 24 hrs by global proteomic profiling analysis; format: cell-based

inhibition [2]: Active | Activity [3]: Dose-Dependent Effect | DC50 [3]: 530 nM | Activity [4]: Active | AUC(0-t) at 12 h [6]: 4550 ng·h/mL | Activity [7]: inactive | Activity [8]: inactive | IC50 (HCT-116): 5100 nM | Emax [10]: 84.3% | Activity [11]: inactive | IC50 (LoVo [12]): 470 nM | Activity [13]: inactive | Activity [16]: inactive | Activity [17]: Active | Activity [24]: Dose-Dependent Effect | Drug uptake(free) [25]: ~ 6 uM | Activity [26]: Tde | Activity [27]: Active
Compound: C[C@@H]1COCCN1c1cc(C2([S@@](C)(=O)=NC(=O)CCc3cn(CCCCCCCC(=O)Nc4cccc5c4C(=O)N(C4CCC(=O)NC4=O)C5=O)nn3)CC2)nc(-c2ccnc3[nH]ccc23)n1 (some centres undefined)
Activity [1]: Non-Toxic | inhibition in vivo at 12.5 mg/kg (LoVo [5]): 39.5% | Activity (LoVo [9]): 23.91% | Activity (LoVo [14]): Dose-Dependent Effect | Activity (LoVo [15]): 45.62% | Activity (LoVo [18]): Active | Activity (LoVo [19]): 57.9% | inhibition in vivo at 12.5 mg/kg (LoVo [20]): 60.6% | Activity (LoVo [21]): 22.4% | Activity [22]: Non-Toxic | inhibition in vivo at 25 mg/kg (LoVo [23]): 51.8%
